Columns and labels:
[1] = system: A498 (Renal cancer); experiment: NCI-60 screen (SRB, 48 h); conditions: Homo sapiens
[2] = system: K-562 (Leukemia); experiment: NCI-60 screen (SRB, 48 h); conditions: Homo sapiens
[3] = system: Melanoma subpanel; experiment: NCI-60 screen, subpanel; conditions: Homo sapiens
[4] = system: CNS cancer subpanel; experiment: NCI-60 screen, subpanel; conditions: Homo sapiens
[5] = system: FaDu (hypopharyngeal carcinoma); experiment: SRB cytotoxicity assay, 72 h; assay type: cell-based, human; conditions: Homo sapiens, cut-off 30 µM, read-out: EC50
Description: (§1) The cytotoxicity of compounds 1–20 was evaluated by means of a colorimetric sulforhodamine B (SRB) assay. For all compounds, the EC50 values were determined for the human tumor cell lines A375 (malignant melanoma), HT29 (colorectal carcinoma), MCF-7 (breast carcinoma), A2780 (ovarian carcinoma), FaDu (hypopharyngeal carcinoma), and NIH 3T3 (non-malignant mouse fibroblasts).
(§2) In short, exponentially growing cells were seeded into 96-well plates on day 0 at the appropriate cell densities to prevent confluence of the cells during the period of experiment. After 24 h, the cells were treated with serial dilutions of the compounds (0–30 µM) for 72 h. The final concentration of DMSO never exceeded 0.5%, which was non-toxic to the cells. After a 72 h treatment, the supernatant medium from the 96-well plates was discarded, and the cells were fixed with 10% TCA. For a thorough fixation, the plates were allowed to rest at 4 °C. After fixation, the cells were washed in a strip washer. The washing was done four times with water using alternate dispensing and aspiration procedures. The plates were then dyed with 100 µL of 0.4% SRB for about 20 min. After dying, the plates were washed with 1% acetic acid to remove the excess of the dye and allowed to air-dry overnight. Tris base solution (200 µL, 10 mM) was added to each well and absorbance was measured at λ = 570 nm (using a 96 well plate reader, Tecan Spectra, Crailsheim, Germany). The percentages of surviving cells relative to untreated controls were determined.

[6] = system: MCF-7 (breast carcinoma); experiment: SRB cytotoxicity assay, 72 h; assay type: cell-based, human; conditions: Homo sapiens, MCF7; MCF-7, 72 h, cut-off 30 µM; read-out: EC50
Description: as §1, §2

[7] = system: HT29 (colorectal carcinoma); experiment: SRB cytotoxicity assay, 72 h; assay type: cell-based, human; conditions: Homo sapiens, HT-29; HT29, 72 h, cut-off 30 µM; read-out: EC50
Description: as §1, §2

[8] = system: A375 (malignant melanoma); experiment: SRB cytotoxicity assay, 72 h; assay type: cell-based, human; conditions: Homo sapiens, A-375, 72 h, A375, 72 h, cut-off 30 µM; read-out: EC50
Description: as §1, §2

[9] = system: A2780 (ovarian carcinoma); experiment: SRB cytotoxicity assay, 72 h; assay type: cell-based, human; conditions: Homo sapiens; A2780, 72 h, cut-off 30 µM; read-out: EC50
Description: as §1, §2

[10] = system: SF-295 (CNS cancer); experiment: NCI-60 screen (SRB, 48 h); conditions: Homo sapiens
[11] = system: HT29 (Colon cancer); experiment: NCI-60 screen (SRB, 48 h); conditions: Homo sapiens
[12] = system: CCRF-CEM (Leukemia); experiment: NCI-60 screen (SRB, 48 h); conditions: Homo sapiens
[13] = system: BT-549 (Breast cancer); experiment: NCI-60 screen (SRB, 48 h); assay type: cell-based; conditions: Homo sapiens
[14] = system: NIH 3T3 (non-malignant mouse fibroblasts); experiment: SRB cytotoxicity assay, 72 h; assay type: cell-based; conditions: Mus musculus, NIH3T3; NIH 3T3, 72 h, cut-off 30 µM; read-out: EC50
Description: as §1, §2

[15] = system: MALME-3M (Melanoma); experiment: NCI-60 screen (SRB, 48 h); conditions: Homo sapiens
[16] = system: NSC lung cancer subpanel; experiment: NCI-60 screen, subpanel; conditions: Homo sapiens
[17] = system: SN12C (Renal cancer); experiment: NCI-60 screen (SRB, 48 h); conditions: Homo sapiens
[18] = system: HCT-116 (Colon cancer); experiment: NCI-60 screen (SRB, 48 h); conditions: Homo sapiens
[19] = system: MDA-MB-435 (Melanoma); experiment: NCI-60 screen (SRB, 48 h); assay type: cell-based; conditions: Homo sapiens
[20] = system: UO-31 (Renal cancer); experiment: NCI-60 screen (SRB, 48 h); conditions: Homo sapiens
[21] = system: SF-539 (CNS cancer); experiment: NCI-60 screen (SRB, 48 h); conditions: Homo sapiens
[22] = system: KM12 (Colon cancer); experiment: NCI-60 screen (SRB, 48 h); conditions: Homo sapiens
[23] = system: MCF7 (Breast cancer); experiment: NCI-60 screen (SRB, 48 h); conditions: Homo sapiens
[24] = system: Prostate cancer subpanel; experiment: NCI-60 screen, subpanel; conditions: Homo sapiens
[25] = system: SK-MEL-2 (Melanoma); experiment: NCI-60 screen (SRB, 48 h); conditions: Homo sapiens

Q: `Cc1ccc(S(=O)(=O)OC[C@@]2(C)CC[C@]3(C)CC[C@]4(C)C(=C3C2)C=C[C@@H]2[C@@]3(C)CCCNC(C)(C)[C@@H]3CC[C@]24C)cc1` [Compound 16] was tested. Which GI50 ([1]; A498) did it give?
A: 1710 nM

Q: What about the IC (TGI) ([1]; A498, 48 h, read-out: TGI) of the same molecule?
A: 3.13 µM

Q: And the CC50 ([1]; A498, read-out: LC50)?
A: 5.74 µM

Q: What about the GI50 ([2]; K562) of the same molecule?
A: 1280 nM

Q: What about the CC50 ([2]; K562, read-out: LC50) of the same molecule?
A: > 100 µM

Q: What about the IC (TGI) ([3]; 48 h, read-out: TGI MG_MID) of the same molecule?
A: 3.36 µM

Q: And the GI50 ([3]; read-out: GI50 MG_MID)?
A: 1770 nM

Q: And the CC50 ([3]; read-out: LC50 MG_MID)?
A: 6.16 µM

Q: And the IC (TGI) ([4]; 48 h, read-out: TGI MG_MID)?
A: 3.4 µM

Q: And the GI50 ([4]; read-out: GI50 MG_MID)?
A: 1770 nM

Q: What about the CC50 ([4]; read-out: LC50 MG_MID) of the same molecule?
A: 6.49 µM

Q: What about the EC50 [5] of the same molecule?
A: 1520 ± 100 nM

Q: What about the EC50 [6] of the same molecule?
A: 1540 ± 100 nM

Q: What about the EC50 [7] of the same molecule?
A: 1540 ± 100 nM

Q: And the EC50 [8]?
A: 1910 ± 100 nM

Q: And the EC50 [9]?
A: 2380 ± 100 nM

Q: What about the GI50 ([10]; SF-295) of the same molecule?
A: 1780 nM

Q: What about the IC (TGI) ([10]; SF-295, 48 h, read-out: TGI) of the same molecule?
A: 3.29 µM

Q: And the CC50 ([10]; SF-295, read-out: LC50)?
A: 6.08 µM

Q: And the GI50 ([11]; HT-29)?
A: 1480 nM

Q: And the IC (TGI) ([11]; HT-29, 48 h, read-out: TGI)?
A: 3.08 µM

Q: What about the GI50 [12] of the same molecule?
A: 2140 nM

Q: And the IC (TGI) ([12]; 48 h, read-out: TGI)?
A: 6.06 µM

Q: And the CC50 ([12]; read-out: LC50)?
A: > 100 µM

Q: And the GI50 ([13]; BT-549)?
A: 1480 nM

Q: And the IC (TGI) ([13]; BT-549, 48 h)?
A: 3.14 µM

Q: What about the EC50 [14] of the same molecule?
A: 2450 ± 100 nM

Q: What about the GI50 [15] of the same molecule?
A: 1680 nM

Q: And the IC (TGI) ([15]; 48 h, read-out: TGI)?
A: 3.26 µM

Q: And the CC50 ([15]; read-out: LC50)?
A: 6.34 µM

Q: And the IC (TGI) ([16]; 48 h, read-out: TGI MG_MID)?
A: 3.36 µM

Q: And the GI50 ([16]; read-out: GI50 MG_MID)?
A: 1720 nM

Q: And the CC50 ([16]; read-out: LC50 MG_MID)?
A: 6.23 µM

Q: And the GI50 [17]?
A: 1790 nM

Q: And the IC (TGI) ([17]; 48 h, read-out: TGI)?
A: 3.41 µM

Q: What about the GI50 ([18]; HCT-116) of the same molecule?
A: 1540 nM

Q: What about the activity at 10 µM ([18]; HCT-116, 48 h, read-out: Growth % of the Most Sensitive Cell Lines) of the same molecule?
A: -91.5%

Q: And the GI50 ([19]; MDA-MB-435)?
A: 1640 nM

Q: What about the IC (TGI) ([19]; MDA-MB-435, 48 h, read-out: TGI) of the same molecule?
A: 3.07 µM

Q: And the CC50 ([19]; MDA-MB-435, read-out: LC50 (the source's name))?
A: 5.75 µM

Q: And the GI50 ([20]; UO-31)?
A: 1460 nM

Q: And the IC (TGI) ([20]; UO-31, 48 h, read-out: TGI)?
A: 2.85 µM

Q: And the CC50 ([20]; UO-31, read-out: LC50)?
A: 5.59 µM

Q: What about the GI50 ([21]; SF-539) of the same molecule?
A: 1710 nM

Q: And the IC (TGI) ([21]; SF-539, 48 h, read-out: TGI)?
A: 3.11 µM

Q: What about the CC50 ([21]; SF-539, read-out: LC50) of the same molecule?
A: 5.66 µM

Q: And the GI50 ([22]; KM12)?
A: 1860 nM

Q: What about the IC (TGI) ([22]; KM12, 48 h, read-out: TGI) of the same molecule?
A: 3.57 µM

Q: What about the CC50 ([22]; KM12, read-out: LC50) of the same molecule?
A: 6.85 µM

Q: And the GI50 ([23]; MCF7)?
A: 1510 nM

Q: What about the IC (TGI) ([23]; MCF7, 48 h, read-out: TGI) of the same molecule?
A: 3.18 µM

Q: What about the IC (TGI) ([24]; 48 h, read-out: TGI MG_MID) of the same molecule?
A: 3.19 µM

Q: What about the GI50 ([24]; read-out: GI50 MG_MID) of the same molecule?
A: 1670 nM

Q: What about the CC50 ([24]; read-out: LC50 MG_MID) of the same molecule?
A: 6.1 µM

Q: What about the GI50 ([25]; SK-MEL-2) of the same molecule?
A: 1880 nM

Q: What about the IC (TGI) ([25]; SK-MEL-2, 48 h, read-out: TGI) of the same molecule?
A: 3.52 µM

Q: And the CC50 ([25]; SK-MEL-2, read-out: LC50)?
A: 6.58 µM

— publication PMC7914897, “Cytotoxic Potential of a-Azepano- and 3-Amino-3,4-SeCo-Triterpenoids” (International Journal of Molecular Sciences, 2021)
